The text below walks through data of article PMC12432378 (Cell Reports Medicine, 2025).

One assay deals with MjHKU4r-CoV-1 PsV. Particulars: for IC50: 48 h.
For assay [1], the system named is authentic MjHKU4r-CoV-1. Particulars: 72 h.
Assay [2] relates to pseudotyped SARS-CoV-2 (KP.2). The following applies: pseudotyped (KP.2, 48 h).
The next assay concerns MERS-CoV PsV. Particulars: 48 h.
The test system of a further assay is MjHKU4r-S. The class given is cell-based, MjHKU4r-CoV-1. Particulars: for IC50: read-out: IC50 against MjHKU4r-S-mediated cell-cell fusion.
Assay [3] has as its system pseudotyped SARS-CoV-2 (Delta). Particulars: pseudotyped (Delta, 48 h).
The next assay deals with HCoV-OC43. Set-up: species or system newborn ICR mice. The following applies: mouse, in vivo.
Assay [4] relates to authentic MjHKU4r-CoV-1. The class given is cell-based.

Structures are written as SMILES. Positions of bridges follow the written chain, without caps; N, C: chain ends. Non-standard residues stand in square brackets, D forms with d. Residues, ends and D or L forms follow the SMILES beside them. S5 = C=CCCC[C@](C)(N)C(=O)O A value given as a limit tells only on which side of the number the result lay.

For the compound `CSCC[C@H](NC(=O)[C@H](C)NC(=O)CNC(=O)[C@H](CC(C)C)NC(=O)[C@H](C)NC(=O)[C@H](CCC(N)=O)NC(=O)[C@H](CC(N)=O)NC(=O)[C@H](Cc1ccccc1)NC(=O)[C@H](CCCCN)NC(=O)[C@H](CC(N)=O)NC(=O)[C@H](C)NC(C)=O)C(=O)N[C@@H](CCC(N)=O)C(=O)N[C@H](C(=O)NCC(=O)N[C@@H](Cc1ccccc1)C(=O)N[C@H](C(=O)N[C@H](C(=O)N[C@@H](CO)C(=O)N[C@@H](CC(N)=O)C(=O)N[C@@H](CC(C)C)C(=O)N[C@@H](C)C(=O)N[C@@H](Cc1ccccc1)C(=O)N[C@@H](CO)C(=O)N[C@@H](CCCCN)C(=O)N[C@H](C(=O)N[C@@H](CCC(N)=O)C(=O)N[C@@H](CC(=O)O)C(=O)N[C@@H](C)C(=O)N[C@H](C(=O)N[C@@H](CC(N)=O)C(=O)N[C@@H](C)C(=O)N[C@@H](CC(N)=O)C(=O)N[C@@H](C)C(=O)N[C@@H](CC(N)=O)C(=O)N[C@@H](C)C(=O)N[C@@H](CC(C)C)C(=O)N[C@@H](CO)C(=O)N[C@@H](CCCCN)C(=O)N[C@@H](CC(C)C)C(=O)N[C@@H](C)C(=O)N[C@@H](CO)C(=O)N[C@@H](CCC(=O)O)C(N)=O)C(C)C)C(C)C)[C@@H](C)O)[C@@H](C)O)[C@@H](C)O` [MjHKU4r-HR1P], the figures for the 50% inhibitory concentration (IC50) with MjHKU4r-CoV-1 PsV and with authentic MjHKU4r-CoV-1 [1] were above 10000 nM and above 5000 nM, respectively.

As for `CC[C@H](C)[C@H](NC(=O)[C@H](C)NC(=O)[C@H](CCSC)NC(=O)[C@H](CCC(=O)O)NC(=O)[C@H](CC(=O)O)NC(=O)[C@H](CO)NC(=O)[C@H](CC(C)C)NC(=O)[C@H](CC(=O)O)NC(=O)[C@H](CC(C)C)NC(=O)[C@H](CC(C)C)NC(=O)[C@@H](NC(=O)[C@@H](NC(=O)[C@H](CC(N)=O)NC(=O)[C@@H](NC(=O)[C@H](CCCCN)NC(=O)[C@H](CO)NC(=O)[C@@H](NC(=O)[C@H](CCC(=O)O)NC(C)=O)[C@@H](C)CC)[C@@H](C)CC)C(C)C)[C@@H](C)O)C(=O)N[C@@H](CC(C)C)C(=O)N[C@@H](CC(C)C)C(=O)N[C@@H](CCC(=O)O)C(=O)N[C@@H](C)C(=O)N[C@H](C(=O)N[C@@H](CCCCN)C(=O)N[C@@H](CCC(N)=O)C(=O)N[C@@H](CC(C)C)C(=O)N[C@@H](CC(N)=O)C(=O)N[C@@H](CC(=O)O)C(=O)N[C@@H](CO)C(=O)N[C@@H](Cc1ccc(O)cc1)C(=O)N[C@H](C(=O)N[C@@H](CC(=O)O)C(=O)N[C@@H](CC(C)C)C(=O)N[C@@H](CCCCN)C(=O)N[C@@H](CCC(=O)O)C(=O)N[C@@H](CC(C)C)C(N)=O)[C@@H](C)CC)[C@@H](C)CC` [MjHKU4r-HR2P9], the IC50 – broadly, the concentration that inhibits the measured activity by half – in assay [2] was determined as 460 nM; in the assay with MERS-CoV PsV, 114 nM; with MjHKU4r-CoV-1 PsV it was 26 nM; in the assay with authentic HCoV-OC43, 1020 nM; in the assay on MjHKU4r-S, 10.3 nM; in assay [3], 408 nM. Moreover, the “Improvement in inhibition of pseudotyped MjHKU4r-CoV-1 infection compared to original MjHKU4r-HR2P” value with MjHKU4r-CoV-1 PsV is reported as 2.9 fold.

For `CC[C@H](C)[C@H](NC(=O)[C@H](C)NC(=O)[C@H](CCSC)NC(=O)[C@H](CCC(=O)O)NC(=O)[C@H](CC(=O)O)NC(=O)[C@H](CO)NC(=O)[C@H](CC(C)C)NC(=O)[C@H](CC(=O)O)NC(=O)[C@H](CC(C)C)NC(=O)[C@H](CC(C)C)NC(=O)[C@@H](NC(=O)[C@@H](NC(=O)[C@H](CC(N)=O)NC(=O)[C@@H](NC(=O)[C@H](CCCCN)NC(=O)[C@H](CO)NC(=O)[C@@H](NC(=O)[C@H](CCC(=O)O)NC(C)=O)[C@@H](C)CC)[C@@H](C)CC)C(C)C)[C@@H](C)O)C(=O)N[C@@H](CC(C)C)C(=O)N[C@@H](CC(C)C)C(=O)N[C@@]1(C)CCCC=CCCC[C@@](C)(C(=O)N[C@@H](CC(C)C)C(=O)N[C@@H](CC(N)=O)C(=O)N[C@@H](CC(=O)O)C(=O)N[C@@H](CO)C(=O)N[C@@H](Cc2ccc(O)cc2)C(=O)N[C@H](C(=O)N[C@@H](CC(=O)O)C(=O)N[C@@H](CC(C)C)C(=O)N[C@@H](CCCCN)C(=O)N[C@@H](CCC(=O)O)C(=O)N[C@@H](CC(C)C)C(N)=O)[C@@H](C)CC)NC(=O)[C@H](CCCCN)NC(=O)[C@H]([C@@H](C)CC)NC(=O)[C@H](C)NC1=O` [MjHKU4r-HR2P10] (Ac-EISKINVTLLDLSDEMAILL[S5]AIK[S5]LNDSYIDLKEL-NH2; staple 21-25), the concentration for half-maximal inhibition (IC50) in assay [2] was found to be 85.9 nM; with MERS-CoV PsV, 37.2 nM; in the assay on authentic HCoV-OC43 it was 480 nM; in assay [3] it was 115 nM. In the assay with HCoV-OC43, the Survival rate amounted to 66.7%.

Regarding `CC[C@H](C)[C@H](NC(=O)[C@H](C)NC(=O)[C@H](CCSC)NC(=O)[C@H](CCC(=O)O)NC(=O)[C@H](CC(=O)O)NC(=O)[C@H](CO)NC(=O)[C@H](CC(C)C)NC(=O)[C@H](CC(=O)O)NC(=O)[C@H](CC(C)C)NC(=O)[C@H](CC(C)C)NC(=O)[C@@H](NC(=O)[C@@H](NC(=O)[C@H](CC(N)=O)NC(=O)[C@@H](NC(=O)[C@H](CCCCN)NC(=O)[C@H](CO)NC(=O)[C@@H](NC(=O)[C@H](CCC(=O)O)NC(C)=O)[C@@H](C)CC)[C@@H](C)CC)[C@@H](C)O)[C@@H](C)O)C(=O)N[C@@H](CC(C)C)C(=O)N[C@@H](CCC(N)=O)C(=O)N[C@@H](CCC(=O)O)C(=O)N[C@H](C(=O)N[C@H](C(=O)N[C@@H](CCCCN)C(=O)N[C@@H](CCC(N)=O)C(=O)N[C@@H](CC(C)C)C(=O)N[C@@H](CC(N)=O)C(=O)N[C@@H](CC(=O)O)C(=O)N[C@@H](CO)C(=O)N[C@@H](Cc1ccc(O)cc1)C(=O)N[C@H](C(=O)N[C@@H](CC(=O)O)C(=O)N[C@@H](CC(C)C)C(=O)N[C@@H](CCCCN)C(=O)N[C@@H](CCC(=O)O)C(=O)N[C@@H](CC(C)C)C(N)=O)[C@@H](C)CC)C(C)C)C(C)C` [MjHKU4r-HR2P], the IC50 in the assay on MjHKU4r-CoV-1 PsV is 62 nM; with authentic MjHKU4r-CoV-1 [1], 26 nM; in the assay on MjHKU4r-S, 37 nM. Besides, in the assay with authentic MjHKU4r-CoV-1 [4], the “Blockage of MjHKU4r-CoV-1 N protein expression (immunofluorescence)” value is “near-complete blockage”. Also, the “Inhibition of MjHKU4r-S-mediated cell-cell fusion at fixed concentration” value with MjHKU4r-S was “completely inhibited”.
